# Data reported in patent US8338624B2, “Isoflavone derivatives and uses thereof” (Yeda Research and Development Co., Ltd., priority 2007, dated 2012).
# Key:
# [1] = test system: 320DM human colon cancer cells; experiment: DNA synthesis by [3H]-thymidine incorporation, 320DM cells; assay type: cell-based
# Method: (§1) Cells were cultured in MEM supplemented with 10% FCS and antibiotics. Cells were grown to subconfluence and then treated with various hormones or agents as described by Somjen et al. (Somjen et al., 1998). The cells were characterized in terms of expression of mRNAs for estrogen […] by real time PCR, and the results are summarized in Table 1. N87, 320DM and H295R cells expressed mRNAs for both ERs. The ratio of ERα to ERβ was 1:8.5, 1:30 and 1:1.8 in N87, 320DM and H295R cells, respectively. Ovarian A2780 and prostate C4-24 cells expressed mainly mRNA for ERβ, and the ratio of ERβ to ERα was 300:1 and 70:1, respectively. MLS ovarian cells expressed mRNA only for ERβ. The ratio of ERα to ERβ in T47D cells has been reported to be 9:1.
# [^3H]-Thymidine incorporation into DNA was used for the assessment of the various effects (proliferative or inhibitory) of various isoflavones, isoflavone derivatives and known cytotoxic drugs in the above-mentioned cells. Cells were grown until subconfluence using conditions described in Somjen et al. […] At the end of incubation, [^3H]-thymidine was added for two hours. Cells were then treated with 10% ice-cold trichloroacetic (TCA) for 5 min and washed twice with 5% TCA and then with cold ethanol. The cellular layer was dissolved in 0.3 ml of 0.3 M NaOH, aliquots were taken for counting radioactivity, and [^3H]-thymidine incorporation into DNA was calculated.
# [2] = test system: A2780 ovarian cancer cells; experiment: DNA synthesis by [3H]-thymidine incorporation, A2780 cells; assay type: cell-based, human
# Method: as §1
# (§2) [^3H]-Thymidine incorporation into DNA was used for the assessment of the various effects (proliferative or inhibitory) of various isoflavones, isoflavone derivatives and known cytotoxic drugs in the above-mentioned cells. Cells were grown until subconfluence using conditions described in Somjen et al. (Somjen et al., 1998) and then treated with various agents for 24 or 48 h as indicated. At the end of incubation, [^3H]-thymidine was added for two hours. Cells were then treated with 10% ice-cold trichloroacetic (TCA) for 5 min and washed twice with 5% TCA and then with cold ethanol. The cellular layer was dissolved in 0.3 ml of 0.3 M NaOH, aliquots were taken for counting radioactivity, and [^3H]-thymidine incorporation into DNA was calculated.
# [3] = test system: H295R adrenocarcinoma cells; experiment: DNA synthesis by [3H]-thymidine incorporation, H295R cells; assay type: cell-based, human
# Method: as §1, §2
# [4] = test system: human prostate C4-2B cancer cells; experiment: DNA synthesis by [3H]-thymidine incorporation, C4-2B cells; assay type: cell-based
# Method: as §1, §2
# [5] = test system: Human umbilical vascular smooth muscle cells (VSMC); experiment: DNA synthesis by [3H]-thymidine incorporation, normal VSMC; assay type: cell-based; details: compound at 3 μM
# Method: Human umbilical vascular smooth muscle cells (VSMC) sensitive to estrogen, were grown in culture as described above, and used only at passages 1-3, when expression of smooth muscle actin was clearly demonstrable (Somjen et al. 2000). The ratio of the expression of mRNA for ERα to ERβ was 2.7:1.
# as §2
# [6] = test system: T47D mammary cancer cells; experiment: DNA synthesis by [3H]-thymidine incorporation, T47D cells; assay type: cell-based, human; details: Homo sapiens
# Method: as §1, §2
# 320DM colon xenografts = 320DM colon xenografts in nude mice; assay type: in vivo; details: 320DM xenografts, 8 ip daily 230 μg, 9 injections within 11 days
# From the text: Female CD1 nude mice (8-week old, ˜30 g) were housed and handled with free access to food and water in the animal facility according to the guidelines (1996) of the Institutional Animal Care and Use Committee of the Weizmann Institute of Science, Rehovot, Israel.
# Thirty female CD-1 nude mice were inoculated sc with 2×10^6 320DM human colon cancer cells. Two weeks later, 13 mice that developed palpable tumors were divided into two groups: control (5 mice) and treatment (8 mice). Each mouse of the treatment group received daily intra-peritoneal (ip) injections of compound 8 (230 μg in 70 μl of propylene glycol:PBS (20:80)) and the control mice received only propylene glycol:PBS. Each treated mouse received 9 injections within 11 days. The tumors were measured with calipers every other day during 12 days in two dimensions, length (a) and width (b), and tumor area was calculated using the formula: r^2×3.14, where r=a/2+b/2/2. The tumor area on Day 0 was taken as 100%.
smiles,measurement,setting,value
"CC(C)(C)OC(=O)NCCCCCCNC(=O)CCCc1oc2cc(O)cc(O)c2c(=O)c1-c1ccc(O)cc1 [Compound 8, 2-[3-[N-[6-(tert-Butoxycarbonyl)-aminohexyl]]-caboxamidopropyl]-5,7,4′-trihydroxyisoflavone]",effect on DNA synthesis / growth,[1]; 30 to 3000 nM,significant growth inhibitory effect
same,"DNA synthesis, ratio experimental/control (E/C)",[1]; compound at 3 μM,0.2 ± 0.09
same,effect on DNA synthesis,[2]; at 3 μM,had no effect
same,"DNA synthesis, ratio experimental/control (E/C)",[2]; compound at 3 μM,1.12 ± 0.19
same,inhibition at 3 µM,"[3]; Homo sapiens, NCI-H295R, at 3 μM, read-out: inhibition of DNA synthesis / growth",40 to 45%
same,"DNA synthesis, ratio experimental/control (E/C)",[3]; compound at 3 μM,0.6 ± 0.14
same,inhibition of DNA synthesis,[4]; at 30 nM and 300 nM,10-15%
same,"DNA synthesis, ratio experimental/control (E/C)",[4]; compound at 0.3 μM,0.75 ± 0.07
same,"DNA synthesis, ratio experimental/control (E/C)",[5],0.78 ± 0.1
same,inhibition at 10 µM,[6],24 to 40%
same,effect on growth of tumors,320DM colon xenografts,slowed down the growth of the tumors
